Measured values taken from PubChem BioAssay (NCI).
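Method: 48-hour compound exposure of cells in 96-well plates, five concentrations, linear interpolation of endpoints. At the GI50, growth is halved. TGI is the concentration that stops growth completely.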 Where a SMILES comes first, the peptide text is derived from it. Bridges are numbered along the chain shown (N, C = ends). Roman numbers before positions name the chains, in order. [ ]: non-standard residue; d: D form. The star is where a group is joined. Heptadecanoyl = CCCCCCCCCCCCCCCCC(=O)*; Phg = N[CH](C(=O)O)c1ccccc1

Key:
Test in all cases: inhibition of tumour cell growth, NCI panel, 48 h
HL-60(TB) leukemia = system: HL-60(TB) leukemia
HS 578T breast = system: HS 578T breast
MOLT-4 leukemia = system: MOLT-4 leukemia
NCI-H226 lung = system: NCI-H226 lung
SF-539 CNS = system: SF-539 CNS
SK-MEL-5 melanoma = system: SK-MEL-5 melanoma
SNB-19 CNS = system: SNB-19 CNS
SK-OV-3 ovarian = system: SK-OV-3 ovarian
U251 CNS = system: U251 CNS
UO-31 renal = system: UO-31 renal

Row | Compound | TGI (HL-60(TB) leukemia) [µM] | TGI (HS 578T breast) [µM] | TGI (MOLT-4 leukemia) [µM] | TGI (NCI-H226 lung) [µM] | TGI (SF-539 CNS) [µM] | TGI (SK-MEL-5 melanoma) [µM] | TGI (SNB-19 CNS) [µM] | TGI (SK-OV-3 ovarian) [µM] | TGI (U251 CNS) [µM] | TGI (UO-31 renal) [µM] | GI50 (HL-60(TB) leukemia) [µM] | GI50 (HS 578T breast) [µM] | GI50 (MOLT-4 leukemia) [µM] | GI50 (NCI-H226 lung) [µM] | GI50 (SF-539 CNS) [µM] | GI50 (SK-MEL-5 melanoma) [µM] | GI50 (SK-OV-3 ovarian) [µM] | GI50 (SNB-19 CNS) [µM] | GI50 (UO-31 renal) [µM] | GI50 (U251 CNS) [µM]
1 | C/C(=C\c1ccc2c(c1)OCO2)[N+](=O)[O-] | 5.73 | 45.8 | 1.13 | 28.6 | 9.24 | 3.93 | 6.98 | – | – | – | – | – | – | – | – | – | – | – | – | –
2 | C(=N/Nc1ccccn1)/c1cccnc1 | > 100 | > 100 | > 100 | > 100 | > 100 | > 100 | > 100 | > 100 | > 100 | > 100 | – | – | – | – | – | – | – | – | – | –
3 | CCCCCCCCCCCCCCCCC(=O)N1CCCC1C(=O)NCC(=O)NC(C(=O)N1CCCC1C(=O)NC(CO)C(=O)NC(Cc1ccc(O)cc1)C(=O)NC(CCCCNC(=O)C1CCCN1C(=O)C(CCCCN)NC(=O)C(CCCCN)NC(=O)C(CCCCN)NC(=O)C(CCCNC(=N)N)NC(=O)C(CCCCN)NC(=O)C(N)C(C)C)C(=O)NC(CC(C)C)C(=O)NC(CCCNC(=N)N)C(=O)N1CCCC1C(=O)NCC(N)=O)c1ccccc1 (stereo unspecified) (I: Heptadecanoyl-PG[Phg]PSYKLRPG-NH2 / II: H-VKRKKKP; amide I:7-II:C; configuration not given here) | > 100 | > 100 | 44.8 | 49.3 | > 100 | > 100 | 84.1 | 51.4 | – | > 100 | 21.3 | > 100 | 16.3 | 22.1 | 34.4 | 31.3 | 23.1 | 31.2 | 32.4 | –
4 | CN(C)C(=S)SCc1ccccc1 | > 100 | > 100 | – | > 100 | > 100 | > 100 | > 100 | > 100 | > 100 | > 100 | – | – | – | – | – | – | – | – | – | –
5 | CCOC(=O)c1cc(Cl)ccc1OC(N)=O | > 100 | – | > 100 | > 100 | > 100 | > 100 | > 100 | > 100 | > 100 | > 100 | – | – | – | – | – | – | – | – | – | –
6 | N#CC(C#N)=Cc1ccc(-c2ccc(-c3nc4ccccc4s3)cc2)s1 | – | – | 68.5 | 36.8 | 36.3 | 31.7 | > 100 | 50.5 | 31.9 | 30.2 | – | – | 22.8 | 14.7 | 18.3 | 11.8 | 19.7 | 30 | 13.9 | 14.9
7 | Nc1nc(Cl)nc2c1ncn2C1CCC(CO)O1 (stereo unspecified) | – | > 100 | > 100 | > 100 | – | > 100 | > 100 | > 100 | > 100 | > 100 | – | – | – | – | – | – | – | – | – | –
8 | Cc1cccc(C(O)c2ccccn2)c1O (stereo unspecified) | > 100 | > 100 | > 100 | > 100 | > 100 | > 100 | > 100 | – | > 100 | > 100 | – | – | – | – | – | – | – | – | – | –
